This is an account of results in patent US11142520B2, “LDHA activity inhibitors” (ARCTIC PHARMA AS, priority 2017, dated 2021).

For one assay, the target named is LDHB (Homo sapiens (Human), UniProt P07195). The assay is described as follows: Coupled diaphorase assay, LDHB. It counts as biochemical. Conditions: lactate to pyruvate direction, 6 nM LDHB. From the text:
(§1) The inhibitory properties of the compounds were investigated using a coupled enzyme assay that links the lactate dehydrogenase (LDH) reaction to the production of fluorescent resorutin by diaphorase.
(§2) Human lactate dehydrogenases (LDH) catalyze the reversible interconversion between pyruvate and lactate. LDH is capable of catalyzing both the forward (pyruvate to lactate) and the reverse (lactate to pyruvate) reaction, using either NADH or NAD^+ as a cofactor. The reaction proceeds in either direction dependent on various factors, such as substrate availability, the presence of necessary cofactors, temperature and pH. Different isoforms (LDH A, B, and C) of the enzyme favor different reaction directions—LDHA prefers the conversion from pyruvate to lactate, whereas LDHB preferentially oxidizes lactate to pyruvate.
(§3) The coupled assay relies on the oxidation of NAD^+ to NADH throughout the conversion of lactate to pyruvate by LDH (isoforms A, B and C). The produced NADH serves as cofactor in the diaphorase reaction, which reduces non-fluorescent resazurin to fluorescent resorufin. Therefore, the assay indirectly monitors the rate of pyruvate production. Although the consumption of NADH can be directly monitored due to the intrinsic fluorescence of the molecule (excitation: 340 nm, emission: 460 nm) there are problems linked to the direct readout method. […] Shifting the assay to longer wavelengths by coupling the LDH reaction to the conversion of resazurin to fluorescent resorufin by diaphorase reduces this compound interference. The assay direction was thus chosen to provide a robust and reliable assay.
Applying the LDHA reaction in the preferred direction for the conversion of pyruvate to lactate under oxidation of NADH to NAD^+ would necessitate running the LDHA reaction to about 80% completion and adding the diaphorase assay reagents afterwards in order to avoid enzyme competition for NADH.
(§4) The controls allowed for the calculation of the percentage inhibition for each data point. […] Enzyme solution leading to final concentrations of 4-7 nM LDHA or 6 nM LDHB, as well as 0.2 U/ml diaphorase in the reaction well was dispensed into 384-well plates (Greiner bio-one) using a CyBi®-SELMA robotic pipettor. Compound dilutions and the enzyme were incubated for at least 20 min at room temperature. […] The reaction was quenched by the addition of a stop solution (final concentrations: 20 mM EDTA, 400 mM NaCl, 40 mM pyruvate). Fluorescence was read out after 5 min of incubation at an excitation wavelength of 560 nm and an emission wavelength of 590 nm on a Perkin Elmer Victor X plate reader. […]
(§5) Fluorescence data was normalized to DMSO and inhibition controls resulting in percentage inhibition for every compound concentration. Dose response curves were fitted in KaleidaGraph (www.synergy.com) or Dotmatics software package (www.dotmatics.com) using a standard 4-parameter fit (Levenberg-Marquardt fitting procedure), resulting in IC50 values for the test compounds.

In a further assay the target is LDHA (Homo sapiens (Human), UniProt P00338). The assay is described as follows: Coupled diaphorase assay, LDHA. It counts as biochemical. Conditions: lactate to pyruvate direction, 4-7 nM LDHA.
Excerpt: as §1, §2
as §3, with “assay. […]” for “assay.”
as §4, with “Compounds were tested in duplicates using 2-fold, 3-fold or 4-fold serial dilutions including 11 individual concentrations, starting from 5000 μM to 30 μM. […] The controls” for “The controls”
as §5

Sequence of LDHB (P07195 whole entry): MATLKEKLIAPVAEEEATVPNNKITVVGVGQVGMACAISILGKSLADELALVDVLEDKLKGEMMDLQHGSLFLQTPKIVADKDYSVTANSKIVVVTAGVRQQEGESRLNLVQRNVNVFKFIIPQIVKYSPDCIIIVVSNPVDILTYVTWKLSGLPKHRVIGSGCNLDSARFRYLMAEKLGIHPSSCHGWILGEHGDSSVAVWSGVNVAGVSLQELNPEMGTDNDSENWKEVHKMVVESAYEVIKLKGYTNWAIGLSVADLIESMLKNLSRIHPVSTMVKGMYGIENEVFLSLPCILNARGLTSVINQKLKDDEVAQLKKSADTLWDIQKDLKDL

The term IC50 denotes the concentration that gives 50% inhibition. On to `CCCOC(=O)OC1=C(Sc2ccc(F)cc2Cl)C(=O)NC(c2ccc(N3CCOCC3)cc2)(c2ccsc2)C1` (stereo not drawn) [Example 14, 5-((2-chloro-4-fluorophenyl)thio)-2-(4-morpholinophenyl)-6-oxo-2-(thiophen-3-yl)-1,2,3,6-tetrahydropyridin-4-yl propyl carbonate], for which the IC50 at LDHB and on LDHA was 50 to 100 µM throughout.
In the case of `COC(=O)OC1=C(Sc2ccccc2Cl)C(=O)OC(c2ccsc2)(c2ccc(Br)cn2)C1` (stereo not drawn) [Example 21, 2-(5-bromopyridin-2-yl)-5-((2-chlorophenyl)thio)-6-oxo-2-(thiophen-3-yl)-3,6-dihydro-2H-pyran-4-yl methyl carbonate], on LDHA, the IC50 was in the range of 10 to 50 µM.
As for `O=C1CC(c2ccsc2)(c2cccc(OCC3CCCC3)n2)NC(=O)C1Sc1ccc(Cl)cc1Cl` (stereo not drawn) [Example 1, 6-[6-(cyclopentylmethoxy)pyridin-2-yl]-3-[(2,4-dichlorophenyl)sulfanyl]-6-(thiophen-3-yl)piperidine-2,4-dione], the half-inhibitory concentration (IC50) was more than 100 µM on LDHB and 10 to 50 µM on LDHA.
As for `CCOC(=O)OC1=C(Sc2cccc(Cl)c2Cl)C(=O)NC(c2ccc(N3CCOCC3)cc2)(c2ccsc2)C1` (stereo not drawn) [Example 15, 5-((2,3-dichlorophcnyl)thio)-2-(4-morpholinophenyI)-6-oxo-2-(thiophcn-3-yl)-1,2,3,6-tetrahydropyridin-4-yl ethyl carbonate], the 50% inhibitory concentration (IC50) on LDHB was more than 100 µM; on LDHA, 50 to 100 µM.
For `CCOC(=O)OC1=C(Sc2ccc(F)cc2Cl)C(=O)NC(c2ccsc2)(c2cccc(OCC3CCCC3)n2)C1` (stereo not drawn) [Example 11, 5-[(2-chloro-4-fluorophenyl)sulfanyl]-2-[6-(cyclopentylmethoxy)pyridin-2-yl]-6-oxo-2-(thiophen-3-yl)-1,2,3,6-tetrahydropyridin-4-yl ethyl carbonate], the IC50 on LDHB and at LDHA was more than 100 µM in each case.
Turning to `O=C1NC(c2ccc(N3CCOCC3)cc2)(c2ccsc2)CC(OC(=O)c2ccncc2)=C1Sc1cc(Cl)ccc1Cl` (stereo not drawn) [Example 31, 5-((2,5-dichlorophenyl)thio)-2-(4-morpholinophenyl)-6-oxo-2-(thiophen-3-yl)-1,2,3,6-tetrahydropyridin-4-yl isonicotinate], the concentration for half-maximal inhibition (IC50) on LDHA lay in the range of 0.5 to 10 µM.
As to `CCCCCCCCCCOC(=O)OC1=C(Sc2cc(Cl)ccc2Cl)C(=O)NC(c2ccsc2)(c2cccc(OCC3CCCC3)n2)C1` (stereo not drawn) [Example 16, 6′-(cyclopentylmethoxy)-5-((2,5-dichlorophenyl)thio)-6-oxo-2-(thiophen-3-yl)-1,2,3,6-tetrahydro-[2,2′-bipyridin]-4-yl decyl carbonate], the half-maximal inhibitory concentration (IC50) on LDHA is more than 100 µM.
Turning to `O=C1CC(c2ccsc2)(c2ccccn2)OC(=O)C1Sc1ccccc1Cl` (stereo not drawn) [Example 20, 3-((2-chlorophenyl)thio)-6-(pyridin-2-yl)-6-(thiophen-3-yl)dihydro-2H-pyran-2,4(3H)-dione], the IC50 on LDHB and at LDHA was 0.5 to 10 µM throughout.
Take `COCCOC(=O)OC1=C(Sc2cc(Cl)ccc2Cl)C(=O)NC(c2ccc(N3CCOCC3)cc2)(c2ccsc2)C1` (single isomer, unassigned) [Example 17 Enantiomer 1]: the half-maximal inhibitory concentration (IC50) at LDHA was in the range of 10 to 50 µM.
With `COCCOC(=O)OC1=C(Sc2ccc(F)cc2Cl)C(=O)NC(c2ccc(N3CCOCC3)cc2)(c2ccsc2)C1` (stereo not drawn) [Example 33, 5-((2-chloro-4-fluorophenyl)thio)-2-(4-morpholinophenyl)-6-oxo-2-(thiophen-3-yl)-1,2,3,6-tetrahydropyridin-4-yl (2-methoxyethyl) carbonate], the values for the IC50 at LDHB and on LDHA were more than 100 µM and 0.5 to 10 µM, respectively.
Take `COCCOC(=O)OC1=C(Sc2ccccc2Cl)C(=O)OC(c2cnc(N3CCOCC3)nc2)(c2ccsc2)C1` (stereo not drawn) [Example 35, 5-((2-chlorophenyl)thio)-2-(2-morpholinopyrimidin-5-yl)-6-oxo-2-(thiophen-3-yl)-3,6-dihydro-2H-pyran-4-yl (2-methoxyethyl) carbonate]: at LDHA, the IC50 lay within 10 to 50 µM.
In the case of `O=C1CC(c2ccsc2)(c2cccc(Br)n2)NC(=O)C1Sc1cccc(Cl)c1Cl` (stereo not drawn) [Example 6, 6-(6-bromopyridin-2-yl)-3-[(2,3-dichlorophenyl)sulfanyl]-6-(thiophen-3-yl)piperidine-2,4-dione], the IC50 on LDHB and on LDHA was more than 100 µM each time.
Turning to `O=C1CC(c2cnc(N3CCOCC3)nc2)(c2ccsc2)OC(=O)C1Sc1ccccc1Cl` (stereo not drawn) [Example 23, 3-((2-chlorophenyl)thio)-6-(2-morpholinopyrimidin-5-yl)-6-(thiophen-3-yl)dihydro-2H-pyran-2,4(3H)-dione], the half-inhibitory concentration (IC50) on LDHB and at LDHA was 0.5 to 10 µM throughout.
With `CC(C)COC(=O)OC1=C(Sc2cc(Cl)ccc2Cl)C(=O)NC(c2ccc(N3CCOCC3)cc2)(c2ccsc2)C1` (stereo not drawn) [Example 26, 5-((2,5-dichlorophenyl)thio)-2-(4-morpholinophenyl)-6-oxo-2-(thiophen-3-yl)-1,2,3,6-tetrahydropyridin-4-yl isobutyl carbonate], at LDHA, the IC50 lay in the range of 50 to 100 µM.
On the same count and under the same terms, for `CC(=O)OC1=C(Sc2cc(Cl)ccc2Cl)C(=O)NC(c2ccc(N3CCOCC3)cc2)(c2ccsc2)C1` (stereo not drawn) [Example 27, 5-((2,5-dichlorophenyl)thio)-2-(4-morpholinophenyl)-6-oxo-2-(thiophen-3-yl)-1,2,3,6-tetrahydropyridin-4-yl acetate] the value was 10 to 50 µM; for `COCCOC(=O)OC1=C(Sc2cc(Cl)ccc2Cl)C(=O)NC(c2ccsc2)(c2cccc(OCC3CCCC3)n2)C1` (stereo not drawn) [Example 34, 6′-(cyclopentylmethoxy)-5-((2,5-dichlorophenyl)thio)-6-oxo-2-(thiophen-3-yl)-1,2,3,6-tetrahydro-[2,2′-bipyridin]-4-yl (2-methoxyethyl) carbonate], more than 100 µM.
For the compound `O=C1CC(c2cncnc2)(c2ccsc2)OC(=O)C1Sc1ccccc1Cl` (stereo not drawn) [Example 19, 3-((2-chlorophenyl)thio)-6-(pyrimidin-5-yl)-6-(thiophen-3-yl)dihydro-2H-pyran-2,4(3H)-dione], the IC50 at LDHA was in the range of 0.5 to 10 µM.
With `O=C1CC(c2ccc(N3CCOCC3)cc2)(c2ccsc2)NC(=O)C1Sc1cc(Cl)ccc1Cl` (single isomer, unassigned) [Example 10 Enantiomer 2], at LDHA, the IC50 is 10 to 50 µM.
As to `CC(C)(C)C(=O)OC1=C(Sc2cc(Cl)ccc2Cl)C(=O)NC(c2ccc(N3CCOCC3)cc2)(c2ccsc2)C1` (stereo not drawn) [Example 28, 5-((2,5-dichlorophenyl)thio)-2-(4-morpholinophenyl)-6-oxo-2-(thiophen-3-yl)-1,2,3,6-tetrahydropyridin-4-yl pivalate], the IC50 at LDHA lay in the range of 10 to 50 µM.
Regarding `COCCOC(=O)OC1=C(Sc2cc(Cl)ccc2Cl)C(=O)NC(c2ccc(N3CCOCC3)cc2)(c2ccsc2)C1` (racemic) [Example 17, 5-((2,5-dichlorophenyl)thio)-2-(4-morpholinophenyl)-6-oxo-2-(thiophen-3-yl)-1,2,3,6-tetrahydropyridin-4-yl (2-methoxyethyl) carbonate], the IC50 at LDHA is 10 to 50 µM.
Still for that read-out and setting: for `COCCOC(=O)OC1=C(Sc2cc(Cl)ccc2Cl)C(=O)NC(c2ccc(N3CCOCC3)cc2)(c2ccsc2)C1` (single isomer, unassigned) [Example 17 Enantiomer 2] the value was 0.5 to 10 µM; for `O=C1CC(c2ccc(N3CCOCC3)cc2)(c2ccsc2)NC(=O)C1Sc1cc(Cl)ccc1Cl` (single isomer, unassigned) [Example 10 Enantiomer 1], 0.5 to 10 µM.
